Patent US20190014776A1 (priority 2017, published 2019)

Format: physicochemical
Conditions: relative to tank mix of CLARITY and CONTROLMAX; dicamba 1.2 wt. % a.e., glyphosate 2.4 wt. % a.e.; 35° C., 40% RH, 24 hours
Experimental: The dicamba volatility from each composition was measured by the procedure described in “A Method to Determine the Relative Volatility of Auxin Herbicide Formulations” in ASTM publication STP1587 entitled “Pesticide Formulation and Delivery Systems: 35th Volume, Pesticide Formulations, Adjuvants, and Spray Characterization in 2014, published 2016, which is incorporated herein by reference.
Humidomes obtained from Hummert International (Part Nos 14-3850-2 for humidomes and 11-3050-1 for 1020 flat tray) were modified by cutting a 2.2 cm diameter hole on one end approximately 5 cm from the top to allow for insertion of a glass air sampling tube (22 mm OD) containing a polyurethane foam (PUF) filter. The sampling tube was secured with a VITON o-ring on each side of the humidome wall. The air sampling tube external to the humidome was fitted with tubing that was connected to a vacuum manifold immediately prior to sampling.
The flat tray beneath the humidome was filled with 1 liter of sifted dry or wet 50/50 soil (50% Redi-Earth and 50% US 10 Field Soil) to a depth of about 1 cm. […]
The flat tray bottom containing the auxin herbicide formulation on soil was covered with the humidome lid and the lid was secured with clamps. […] The PUF filter was extracted with 20 mL of methanol and the solution was analyzed for the auxin herbicide concentration using LC-MS methods known in the art.

For `CCCC[N+](CCCC)(CCCC)CCCC.COc1c(Cl)ccc(Cl)c1C(=O)[O-]` [TBA Dicamba, tetrabutylammonium (TBA) dicamba], the “Volatility Reduction” value was 99.5%.
